Among the data in US9000159B2 (Glenmark Pharmaceuticals, S.A., priority 2009, dated 2015) are inhibition and IC50 values, retold here.

By inhibition is commonly meant the drop in the measured response relative to a control, in per cent. The term IC50 denotes the concentration needed to halve the response being measured.

This experiment deals with T1, Human TRPA1 (Homo sapiens, UniProt O75762).
T1 construct: expressed in transfected cells; host or cells: CHO cells
The experiment can be described thus: 45Calcium uptake assay: inhibition of AITC induced cellular uptake of radioactive calcium. It counts as cell-based. Particulars: AITC (30 μM) induced 45Ca uptake, Human TRPA1 expressing CHO cells; for inhibition at 1 µM: 1.0 μM test compound, read-out: Percentage inhibition at 1.0 μM; for inhibition at 10 µM: 10.0 μM test compound, read-out: Percentage inhibition at 10.0 μM; for IC50: read-out: Human IC50 value (range). A digest of the protocol: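 CHO cells stably expressing human TRPA1 (~50,000/well) preincubated 10 min with compound (0.5% DMSO, medium with 0.1% BSA, 1.8 mM CaCl2), then 30 μM AITC plus 5 μCi/ml 45Ca2+ for 3 min. Lysate radioactivity counted by scintillation; IC50 by nonlinear regression of % maximal uptake.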

T1 sequence (O75762 whole entry): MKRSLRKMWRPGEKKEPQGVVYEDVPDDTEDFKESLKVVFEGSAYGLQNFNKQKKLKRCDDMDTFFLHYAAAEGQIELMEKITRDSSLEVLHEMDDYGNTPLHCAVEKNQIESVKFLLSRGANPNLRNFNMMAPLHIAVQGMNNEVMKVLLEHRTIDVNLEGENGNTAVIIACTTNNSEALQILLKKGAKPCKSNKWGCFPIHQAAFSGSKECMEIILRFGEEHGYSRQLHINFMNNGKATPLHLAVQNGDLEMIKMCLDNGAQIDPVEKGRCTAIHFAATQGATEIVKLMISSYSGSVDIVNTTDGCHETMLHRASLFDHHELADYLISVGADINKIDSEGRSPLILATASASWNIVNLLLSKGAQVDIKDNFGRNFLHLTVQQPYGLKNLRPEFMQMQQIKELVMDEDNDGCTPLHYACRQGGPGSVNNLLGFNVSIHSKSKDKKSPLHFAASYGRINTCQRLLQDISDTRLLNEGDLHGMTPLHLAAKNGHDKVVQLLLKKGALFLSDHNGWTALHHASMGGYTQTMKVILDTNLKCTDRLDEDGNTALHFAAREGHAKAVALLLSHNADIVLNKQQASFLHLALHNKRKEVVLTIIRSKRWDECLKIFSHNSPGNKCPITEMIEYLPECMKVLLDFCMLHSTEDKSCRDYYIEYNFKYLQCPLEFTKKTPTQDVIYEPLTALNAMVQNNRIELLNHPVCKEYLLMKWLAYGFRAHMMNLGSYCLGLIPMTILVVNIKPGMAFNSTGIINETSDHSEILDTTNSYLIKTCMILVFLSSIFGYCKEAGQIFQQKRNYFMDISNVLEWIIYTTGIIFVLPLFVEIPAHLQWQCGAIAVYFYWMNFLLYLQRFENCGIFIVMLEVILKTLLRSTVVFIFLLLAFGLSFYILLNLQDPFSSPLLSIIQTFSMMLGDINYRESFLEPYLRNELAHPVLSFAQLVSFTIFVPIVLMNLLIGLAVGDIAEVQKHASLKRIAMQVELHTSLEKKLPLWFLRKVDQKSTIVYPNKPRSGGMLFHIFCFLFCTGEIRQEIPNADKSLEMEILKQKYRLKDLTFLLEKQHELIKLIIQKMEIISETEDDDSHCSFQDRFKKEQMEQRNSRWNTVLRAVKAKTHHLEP

As for `CCN(CC)Cc1cn(CC(=O)Nc2nc(-c3ccc(C(F)(F)F)c(F)c3)cs2)c2c(=O)n(C)c(=O)n(C)c12` [Example 40, N-{4-[3-Fluoro-4-(trifluoromethyl)phenyl]-1,3-thiazol-2-yl}-2-{7-[(diethylamino)methyl]-1,3-dimethyl-2,4-dioxo-1,2,3,4-tetrahydro-5H-pyrrolo[3,2-d]pyrimidin-5-yl}acetamide], the inhibition at 1 µM stood at 48.5% and the inhibition at 10 µM was determined as 86.2%.
Consider `Cc1cc2c(c(=O)n(C)c(=O)n2C)n1CC(=O)Nc1nc(-c2cc(Cl)c(OCC(C)(C)C)c(Cl)c2)cs1` [Example 29], for which the inhibition at 1 µM was determined as 95.6%, the inhibition at 10 µM is 97.1% and the IC50 was under 50 nM.
The corresponding values for `Cn1c(=O)c2c(ccn2CC(=O)Nc2nc(-c3ccc(OCC(F)(F)F)c(Br)c3)cs2)n(C)c1=O` [Example 23, N-{4-[3-Bromo-4-(2,2,2-trifluoroethoxy)phenyl]-1,3-thiazol-2-yl}-2-(1,3-dimethyl-2,4-dioxo-1,2,3,4-tetrahydro-5H-pyrrolo[3,2-d]pyrimidin-5-yl)acetamide] are 87.4%, 92.2% and 50 to 100 nM.
The corresponding values for `Cn1c(=O)c2c(ccn2CC(=O)Nc2nc(-c3cc(Cl)c(OCC(C)(C)C)c(Cl)c3)cs2)n(C)c1=O` [Example 13, N-{4-[3,5-Dichloro-4-(2,2-dimethylpropoxy)phenyl]-1,3-thiazol-2-yl}-2-(1,3-dimethyl-2,4-dioxo-1,2,3,4-tetrahydro-5H-pyrrolo[3,2-d]pyrimidin-5-yl)acetamide] are 86.5%, 98.8% and 50 to 100 nM.
As to `Cn1c(=O)c2c(CC(=O)Nc3nc(-c4ccc(C(F)(F)F)c(F)c4)cs3)cn(C)c2n(C)c1=O` [Example 41, N-{4-[3-Fluoro-4-(trifluoromethyl)phenyl]-1,3-thiazol-2-yl}-2-(1,3,7-trimethyl-2,4-dioxo-2,3,4,7-tetrahydro-1H-pyrrolo[2,3-d]pyrimidin-5-yl)acetamide], the inhibition at 1 µM was 38% and the inhibition at 10 µM stood at 86.5%.
On to `Cn1nc2c(c1CC(=O)Nc1nc(-c3cccc(OC(F)(F)F)c3)cs1)c(=O)n(C)c(=O)n2C` [Example 49, N-{4-[3-(Trifluoromethoxy)phenyl]-1,3-thiazol-2-yl}-2-(2,5,7-trimethyl-4,6-dioxo-4,5,6,7-tetrahydro-2H-pyrazolo[3,4-d]pyrimidin-3-yl)acetamide], for which the inhibition at 1 µM is 52.3% and the inhibition at 10 µM worked out at 88.5%.
